For 33 compounds, Ki results are on record in US7968577B2 (Bristol-Myers Squibb Company, priority 2006, dated 2011).

For this assay, the target named is T1, human full-length glucocorticoid receptor (Homo sapiens, UniProt P04150).
T1 construct: recombinantly expressed human full-length glucocorticoid receptor; purchased PanVera Co., Madison, Wis; P2816
T1 sequence (P04150 1-777): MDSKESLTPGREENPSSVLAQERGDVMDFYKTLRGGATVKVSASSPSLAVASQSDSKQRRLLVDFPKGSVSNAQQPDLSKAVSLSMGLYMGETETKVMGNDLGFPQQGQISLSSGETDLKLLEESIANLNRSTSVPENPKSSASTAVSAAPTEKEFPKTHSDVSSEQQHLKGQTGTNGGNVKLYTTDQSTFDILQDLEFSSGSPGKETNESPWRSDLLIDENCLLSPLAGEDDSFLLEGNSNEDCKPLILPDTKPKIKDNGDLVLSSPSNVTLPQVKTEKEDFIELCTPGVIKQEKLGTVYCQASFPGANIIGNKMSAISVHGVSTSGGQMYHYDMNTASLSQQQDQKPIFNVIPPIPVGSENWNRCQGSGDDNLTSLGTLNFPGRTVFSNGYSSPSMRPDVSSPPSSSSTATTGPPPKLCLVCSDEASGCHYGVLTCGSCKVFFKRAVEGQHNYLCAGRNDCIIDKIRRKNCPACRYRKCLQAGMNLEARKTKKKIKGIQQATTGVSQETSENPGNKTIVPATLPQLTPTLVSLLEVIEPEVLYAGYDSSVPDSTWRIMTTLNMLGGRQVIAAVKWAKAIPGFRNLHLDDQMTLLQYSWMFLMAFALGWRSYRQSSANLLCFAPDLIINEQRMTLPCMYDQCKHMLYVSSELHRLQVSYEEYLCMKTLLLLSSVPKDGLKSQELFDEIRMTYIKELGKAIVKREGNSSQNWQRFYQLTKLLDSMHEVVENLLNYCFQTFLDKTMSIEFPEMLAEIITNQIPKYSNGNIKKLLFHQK
Briefly: Glucocorticoid Receptor Binding Assay (II), fluorescence polarization competitor kit (Fluormone GS1). The following applies: GR Binding Assay (II). The procedure: Glucocorticoid Receptor Binding Assay (II)^b
In order to measure the binding of compounds on the glucocorticoid receptor a commercially available kit was used (Glucocorticoid receptor competitor assay kit, PanVera Co., Madison, Wis., P2816). Briefly, a cell lysate containing recombinantly expressed human full-length glucocorticoid receptor was mixed with a fluorescently labeled glucocorticoid (1 nM Fluormone GS1) in the presence or absence of test compound. After one hour at room temperature, the fluorescence polarization (FP) of the samples were measured.

`CC(C)(C(=O)Nc1nncs1)C(c1ccccc1)c1ccc(N2CCCC2)cc1` (stereo not drawn) [Example 237, 2,2-dimethyl-3-phenyl-3-(4-(1-pyrrolidinyl)phenyl)-N-1,3,4-thiadiazol-2-ylpropanamide] gave a Ki of 13.6 nM.

`CC(C)(C)OC(=O)N1CCN(c2ccc(C(c3ccccc3)C(C)(C)C(=O)Nc3nncs3)cc2)CC1` (stereo not drawn) [Example 238, 1,1-dimethylethyl 4-(4-(2,2-dimethyl-3-oxo-1-phenyl-3-(1,3,4-thiadiazol-2-ylamino)propyl)phenyl)-1-piperazinecarboxylate] showed a Ki of 408 nM.

`CC(C)(C)OC(=O)N1CCN(c2ccc(C(c3ccccc3)C(C)(C)C(=O)Nc3nccs3)cc2)CC1` (stereo not drawn) [Example 239, 2,2-dimethylethyl 4-(4-(2,2-dimethyl-3-oxo-1-phenyl-3-(1,3-thiazol-2-ylamino)propyl)phenyl)-1-piperazinecarboxylate] displayed an inhibition constant (Ki) of 324 nM.

As to `Cc1ccc(CNc2ccc(C(c3ccccc3)C(C)(C)C(=O)Nc3nncs3)cc2)cc1` (stereo not drawn) [Example 240, 2,2-dimethyl-3-(4-(((4-methylphenyl)methyl)amino)phenyl)-3-phenyl-N-1,3,4-thiadiazol-2-ylpropanamide], the affinity, expressed as Ki, was 18.6 nM.

Consider `CC(C)(C(=O)Nc1nncs1)C(c1ccccc1)c1ccc(N2CCC(O)CC2)cc1` (stereo not drawn) [Example 241, 3-(4-(4-hydroxy-1-piperidinyl)phenyl)-2,2-dimethyl-3-phenyl-N-1,3,4-thiadiazol-2-ylpropanamide], for which the inhibition constant (Ki) came out at 31.3 nM.

In turn, `CC(C)(C(=O)Nc1nccs1)C(c1ccccc1)c1ccc(N2CCC(O)CC2)cc1` (stereo not drawn) [Example 242, 3-(4-(4-hydroxy-1-piperidinyl)phenyl)-2,2-dimethyl-3-phenyl-N-1,3-thiazol-2-ylpropanamide] returned a Ki of 9.6 nM.

In turn, `CC(C)(C(=O)Nc1nccs1)C(c1ccccc1)c1ccc(Nc2ccc(F)cc2)cc1` (stereo not drawn) [Example 243, 3-(4-((4-fluorophenyl)amino)phenyl)-2,2-dimethyl-3-phenyl-N-1,3-thiazol-2-ylpropanamide] yielded a Ki of 29.1 nM.

`CC(C)(C(=O)Nc1nncs1)C(c1ccccc1)c1ccc(N2CCOCC2)c(F)c1` (stereo not drawn) [Example 244, 3-(3-fluoro-4-(4-morpholinyl)phenyl)-2,2-dimethyl-3-phenyl-N-1,3,4-thiadiazol-2-ylpropanamide]: the affinity, expressed as Ki, was 17.8 nM.

Regarding `CC(C)(C(=O)Nc1nncs1)C(c1ccccc1)c1cccc(N2CCOCC2)c1` (stereo not drawn) [Example 245, 2,2-dimethyl-3-(3-(4-morpholinyl)phenyl)-3-phenyl-N-1,3,4-thiadiazol-2-ylpropanamide], the inhibition constant (Ki) amounted to 2310 nM.

In turn, `CC(=O)Nc1ccc(C(c2ccccc2)C(C)(C)C(=O)Nc2nncs2)cc1` (stereo not drawn) [Example 246, 3-(4-(acetylamino)phenyl)-2,2-dimethyl-3-phenyl-N-1,3,4-thiadiazol-2-ylpropanamide] returned a Ki of 1500 nM.

`CC(=O)Nc1ccc(C(c2ccccc2)C(C)(C)C(=O)Nc2nccs2)cc1` (stereo not drawn) [Example 247, 3-(4-(acetylamino)phenyl)-2,2-dimethyl-3-phenyl-N-1,3-thiazol-2-ylpropanamide] displayed an inhibitory constant (Ki) of 413 nM.

As to `CC(C)(C)OC(=O)Nc1ccc(C(c2ccccc2)C(C)(C)C(=O)Nc2nncs2)cc1` (stereo not drawn) [Example 248, 1,1-dimethylethyl (4-(2,2-dimethyl-3-oxo-1-phenyl-3-(1,3,4-thiadiazol-2-ylamino)propyl)phenyl)carbamate], the Ki came out at 306 nM.

Compound `CC(C)(C(=O)Nc1nccs1)C(C)(c1ccccc1)c1ccc(N2CCOCC2)cc1` (stereo not drawn) [Example 249, 2,2-dimethyl-3-(4-(4-morpholinyl)phenyl)-3-phenyl-N-1,3-thiazol-2-ylbutanamide] gave a Ki of 181 nM.

The compound `CC(C)(C(=O)Nc1nccs1)C(c1ccccc1)c1ccc(N2CCNCC2)cc1` (stereo not drawn) [Example 250, 2,2-Dimethyl-3-phenyl-3-(4-(1-piperazinyl)phenyl)-N-1,3-thiazol-2-ylpropanamide] displayed a Ki of 348 nM.

`CC(C)(C(=O)Nc1nncs1)C(c1ccccc1)c1ccc(N2CCNCC2)cc1` (stereo not drawn) [Example 251, 2,2-dimethyl-3-phenyl-3-(4-(1-piperazinyl)phenyl)-N-1,3,4-thiadiazol-2-ylpropanamide] returned a Ki of 636 nM.

The compound `CC(C)(C(=O)Nc1nncs1)C(c1ccccc1)c1ccc(N)cc1` (stereo not drawn) [Example 252, 3-(4-aminophenyl)-2,2-dimethyl-3-phenyl-N-1,3,4-thiadiazol-2-ylpropanamide] displayed an inhibitory constant (Ki) of 60.5 nM.

In turn, `CCOC(=O)c1csc(NC(=O)C(C)(C)[C@@H](c2ccccc2)c2ccc(OC)cc2)n1` [Example 263, ethyl 2-((2,2-dimethyl-3-(4-(methyloxy)phenyl)-3-phenylpropanoyl)amino)-1,3-thiazole-4-carboxylate] showed an inhibition constant Ki of 130 nM.

`COc1ccc([C@H](c2ccccc2)C(C)(C)C(=O)Nc2nc(C)cs2)cc1` [Example 265, 2,2-dimethyl-3-(4-(methyloxy)phenyl)-N-(4-methyl-1,3-thiazol-2-yl)-3-phenylpropanamide] had a Ki of 193 nM.

On to `COc1ccc([C@@H](c2ccccc2)C(C)(C)C(=O)Nc2nc(C)cs2)cc1` [Example 266, 2,2-dimethyl-3-(4-(methyloxy)phenyl)-N-(4-methyl-1,3-thiazol-2-yl)-3-phenylpropanamide], for which the affinity corresponds to a Ki of 315 nM.

Turning to `COc1ccc([C@H](c2ccccc2)C(C)(C)C(=O)Nc2ncc(C)s2)cc1` [Example 267, (3S)-2,2-dimethyl-3-(4-(methyloxy)phenyl)-N-(5-methyl-1,3-thiazol-2-yl)-3-phenylpropanamide], the Ki came to 111 nM.

With `COc1ccc([C@@H](c2ccccc2)C(C)(C)C(=O)Nc2ncc(C)s2)cc1` [Example 268, (3R)-2,2-dimethyl-3-(4-(methyloxy)phenyl)-N-(5-mehtyl-1,3-thiazol-2-yl)-3-phenylpropanamide], the affinity corresponds to a Ki of 302 nM.

The compound `COc1ccc([C@H](c2ccccc2)C(C)(C)C(=O)NC2CC2)cc1` [Example 269, (3S)-N-cyclopropyl-2,2-dimethyl-3-(4-(methyloxy)phenyl)-3-phenylpropanamide] showed an inhibition constant Ki of 1300 nM.

Turning to `COc1ccc([C@@H](c2ccccc2)C(C)(C)C(=O)NC2CC2)cc1` [Example 270, (3R)-N-cyclopropyl-2,2-dimethyl-3-(4-(methyloxy)phenyl)-3-phenylpropanamide], the Ki is 2000 nM.

Compound `COc1ccc([C@H](c2ccccc2)C(C)(C)C(=O)NC2CCC2)cc1` [Example 271, (3S)-N-cyclobutyl-2,2-dimethyl-3-(4-(methyloxy)phenyl)-3-phenylpropanamide] had a Ki of 770 nM.

For `COc1ccc([C@@H](c2ccccc2)C(C)(C)C(=O)NC2CCC2)cc1` [Example 272, (3R)-N-cyclobutyl-2,2-dimethyl-3-(4-(methyloxy)phenyl)-3-phenylpropanamide], the inhibition constant (Ki) was 1160 nM.

`COc1ccc([C@H](c2ccccc2)C(C)(C)C(=O)NC2CCCC2)cc1` [Example 273, (3S)-N-cyclopentyl-2,2-dimethyl-3-(4-(methyloxy)phenyl)-3-phenylpropanamide] came in with an inhibitory constant (Ki) of 987 nM.

The compound `COc1ccc([C@@H](c2ccccc2)C(C)(C)C(=O)NC2CCCC2)cc1` [Example 274, (3R)-N-cyclopentyl-2,2-dimethyl-3-(4-(methyloxy)phenyl)-3-phenylpropanamide] had a Ki of 1530 nM.

Consider `COc1ccc([C@H](c2ccccc2)C(C)(C)C(=O)Nc2nncs2)cc1` [Example 275], for which the Ki was determined as 51.9 nM.

`COc1ccc([C@H](c2ccccc2)C(C)(C)C(=O)Nc2ccccn2)cc1` [Example 277, (3S)-2,2-dimethyl-3-(4-(methyloxy)phenyl)-3-phenyl-N-2-pyridinylpropanamide]: the Ki was determined as 2670 nM.

As to `COc1ccc([C@H](c2ccccc2)C(C)(C)C(=O)Nc2ccncn2)cc1` [Example 278, (3S)-2,2-dimethyl-3-(4-(methyloxy)phenyl)-3-phenyl-N-4-pyrimidinylpropanamide], the inhibition constant Ki is 1850 nM.

`COc1ccc(C(c2ccccc2)C(C)(C)C(=O)Nc2nccs2)c(F)c1` (stereo not drawn) [Example 279, 3-(2-fluoro-4-(methyloxy)phenyl)-2,2-dimethyl-3-phenyl-N-1,3-thiazol-2-ylpropanamide]: affinity was put at a Ki of 74.7 nM.

Consider `COc1ccc(C(c2ccccc2)C(C)(C)C(=O)Nc2nncs2)c(F)c1` (stereo not drawn) [Example 280, 3-(2-fluoro-4-(methyloxy)phenyl)-2,2-dimethyl-3-phenyl-N-1,3,4-thiadiazol-2-ylpropanamide], for which the Ki is 100 nM.

`COc1ccc(C(c2ccccc2)C(C)(C)C(=O)Nc2nccs2)cc1F` (stereo not drawn) [Example 281, 3-(3-fluoro-4-(methyloxy)phenyl)-2,2-dimethyl-3-phenyl-N-1,3-thiazol-2-ylpropanamide] yielded an inhibition constant (Ki) of 15.5 nM.

One may read the Ki as the dissociation constant of the complex between target and ligand, obtained from inhibition or displacement. The low end stands for higher affinity, the high end for lower affinity.
